In the assay the target is T1, Pv-M17 (Plasmodium vivax, UniProt A5K3U9).
T1 construct: made in house
The experiment in a line: Recombinant aminopeptidase fluorescence assay (H-Leu-NHMec). The class given is biochemical, P. vivax. Conditions: Pv M17, Morrison equation; read-out: Ki^(app) ± SEM. The method, then: Inhibition of aminopeptidase activity assays were performed against nine aminopeptidases: the M1 alanyl and M17 leucyl aminopeptidases from P. falciparum (PfA-M1; PfA-M17), P. vivax (Pv-M1; Pv-M17), and P. berghei (Pb-M1; Pb-M17), and three human M1 homologs: LTA4H (OriGene TP307617), ERAP1 (OriGene TP314469), and ERAP2 (Creative BioMart ERAP2-304H). The Plasmodium enzymes were produced recombinantly as described previously ([16], [17]), and the human recombinant enzymes were purchased from commercial suppliers as indicated.
The concentration of H-Leu-NHMec in the assay was held constant for each enzyme and ranged from 10 to 100 µM, depending on the enzyme. Reactions were measured at 37°C in white 384-well plates in a total volume of 25 or 50 µL using a spectrofluorimeter (BMG FLUOstar) with excitation at 355 nm and emission at 460 nm. The fluorescence signal was continuously monitored until a final steady-state velocity, v, was obtained. Inhibition constants were calculated from biological triplicates made from three different protein preparations.
Substrate concentrations were selected to allow sensitive detection of enzyme activity while not exceeding the Km for each enzyme. A compound concentration range was selected to obtain a complete inhibition curve (0%–100 %) in biological triplicate. Where possible, the Ki values were calculated by plotting the initial rates versus inhibitor concentration and fitting to the Morrison equation for tight-binding inhibitors in GraphPad Prism (V.8.4.1; non-linear regression method).

SMILES strings stand for the structures.

T1 sequence (A5K3U9 74-621): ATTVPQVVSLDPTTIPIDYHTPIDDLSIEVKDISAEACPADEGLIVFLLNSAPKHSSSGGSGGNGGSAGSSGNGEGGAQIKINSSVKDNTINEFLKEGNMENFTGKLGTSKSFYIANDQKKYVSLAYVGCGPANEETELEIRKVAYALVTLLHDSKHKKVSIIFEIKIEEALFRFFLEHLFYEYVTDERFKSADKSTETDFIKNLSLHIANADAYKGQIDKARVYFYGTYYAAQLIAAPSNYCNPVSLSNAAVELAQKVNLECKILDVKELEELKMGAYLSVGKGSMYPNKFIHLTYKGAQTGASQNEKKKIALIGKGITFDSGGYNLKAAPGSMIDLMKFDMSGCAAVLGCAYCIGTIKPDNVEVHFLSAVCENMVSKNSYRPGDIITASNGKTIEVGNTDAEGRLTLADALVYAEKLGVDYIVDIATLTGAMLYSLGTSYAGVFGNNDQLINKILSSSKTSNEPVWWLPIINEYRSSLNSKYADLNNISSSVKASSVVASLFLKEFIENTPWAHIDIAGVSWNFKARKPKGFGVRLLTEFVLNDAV

In the case of `CC(C)(C)CC(=O)NC(C(=O)NO)c1ccc(-c2cc(F)c(F)c(F)c2)cc1` (stereo not shown) [MMV1557817, N-(2-(hydroxyamino)−2-oxo-1-(3′,4′,5′-trifluoro-[1,1′-biphenyl]-4-yl)ethyl)-3,3-dimethylbutanamide], the Ki was 208 ± 20 nM.

The values are drawn from article PMC11237774, “On-target, dual aminopeptidase inhibition provides cross-species antimalarial activity” (mBio, 2024).
